For five molecules, IC50, AC50 and EC50 results are on record in ChEMBL document CHEMBL1201862, “PubChem BioAssay data set” (2004).

Experiment [1] has as its target T1, Apoptotic protease-activating factor 1 (Homo sapiens, UniProt O14727).
T1 sequence (O14727 whole entry): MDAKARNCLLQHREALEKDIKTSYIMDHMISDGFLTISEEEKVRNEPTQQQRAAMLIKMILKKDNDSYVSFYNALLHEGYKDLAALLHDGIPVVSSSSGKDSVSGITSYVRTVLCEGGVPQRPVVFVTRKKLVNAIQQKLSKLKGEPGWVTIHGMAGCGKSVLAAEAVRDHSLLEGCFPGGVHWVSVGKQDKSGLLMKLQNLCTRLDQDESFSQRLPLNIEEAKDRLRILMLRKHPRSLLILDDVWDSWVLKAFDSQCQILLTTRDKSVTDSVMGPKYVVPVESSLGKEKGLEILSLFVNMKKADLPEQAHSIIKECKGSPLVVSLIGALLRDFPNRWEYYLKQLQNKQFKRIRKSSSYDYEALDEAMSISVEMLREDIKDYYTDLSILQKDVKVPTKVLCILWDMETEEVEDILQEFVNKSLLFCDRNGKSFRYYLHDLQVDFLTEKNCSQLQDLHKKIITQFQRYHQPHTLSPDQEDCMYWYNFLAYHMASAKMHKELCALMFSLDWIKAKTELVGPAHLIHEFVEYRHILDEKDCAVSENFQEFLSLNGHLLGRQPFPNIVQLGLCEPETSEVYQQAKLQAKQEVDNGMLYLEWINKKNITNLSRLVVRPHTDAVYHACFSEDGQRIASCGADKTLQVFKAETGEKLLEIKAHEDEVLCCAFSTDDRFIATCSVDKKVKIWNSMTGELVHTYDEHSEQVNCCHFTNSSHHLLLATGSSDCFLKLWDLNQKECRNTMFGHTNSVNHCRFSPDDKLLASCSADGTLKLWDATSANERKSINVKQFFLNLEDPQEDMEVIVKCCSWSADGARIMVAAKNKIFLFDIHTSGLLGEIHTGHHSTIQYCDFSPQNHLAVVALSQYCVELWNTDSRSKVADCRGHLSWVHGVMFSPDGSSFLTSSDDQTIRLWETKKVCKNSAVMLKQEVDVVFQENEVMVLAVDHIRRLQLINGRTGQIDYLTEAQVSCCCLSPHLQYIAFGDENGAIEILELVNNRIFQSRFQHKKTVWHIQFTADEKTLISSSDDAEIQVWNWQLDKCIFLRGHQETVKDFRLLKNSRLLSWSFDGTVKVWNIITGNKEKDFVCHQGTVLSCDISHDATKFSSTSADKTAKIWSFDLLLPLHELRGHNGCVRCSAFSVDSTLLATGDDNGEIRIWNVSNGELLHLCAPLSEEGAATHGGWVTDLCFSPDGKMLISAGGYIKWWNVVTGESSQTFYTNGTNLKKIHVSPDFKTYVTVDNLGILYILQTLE
Type of experiment: functional.

The nature of experiment [2]: AlphaScreen signal interference compounds, dose response, artefact control for ARNT-TACC3 interaction inhibitor project, biochemical, luminescence, cherry-pick (AID 651705).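 Further: AlphaScreen bead proximity signal that flags compounds interfering with the detection technology; potency reflects signal decrease which marks the compound as an assay artifact.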 Type of experiment: functional. (Alpha assays give light when donor and acceptor beads are brought close together.)
Experiment [3] deals with HEK293. As to the kind of experiment: inhibitors of LMP1-driven NF-kB reporter, dose response, cell-based, HEK293, luciferase, cherry-pick (AID 588343). In kind it is functional. Particulars: Homo sapiens.
Experiment [4] deals with T2, Carboxy-terminal domain RNA polymerase II polypeptide A small phosphatase 1 (Homo sapiens, UniProt Q9GZU7).
T2 sequence (Q9GZU7 whole entry): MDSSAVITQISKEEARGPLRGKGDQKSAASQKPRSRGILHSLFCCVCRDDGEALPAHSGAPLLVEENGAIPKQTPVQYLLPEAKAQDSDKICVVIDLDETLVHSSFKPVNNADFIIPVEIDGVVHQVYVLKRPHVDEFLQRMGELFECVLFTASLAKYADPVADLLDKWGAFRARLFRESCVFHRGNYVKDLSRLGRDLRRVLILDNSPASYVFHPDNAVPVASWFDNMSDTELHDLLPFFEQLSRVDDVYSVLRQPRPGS
As to the kind of experiment: inhibitors of CTDSP1, concentration-response testing, biochemical assay, absorbance-based, actives from ultra-high-throughput screening (AID 540297). Type of experiment: functional.

Experiment [5] is described as follows: cytotoxicity in HEK-293T cells, dose response, cytotoxicity control for TCR NF-kB inhibitor project, luminescence, T-cell screen hits (AID 489026).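 Further: cells exposed to compound about 14 hours before the viability readout.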 In kind it is functional, cell-based.
Experiment [6] concerns the target T3, Sentrin-specific protease 7 (Homo sapiens, UniProt Q9BQF6).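 Further: Luminescence-based dose-response confirmation of ultra-high-throughput screening hits, measuring inhibition of SENP7.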
T3 sequence (Q9BQF6 whole entry): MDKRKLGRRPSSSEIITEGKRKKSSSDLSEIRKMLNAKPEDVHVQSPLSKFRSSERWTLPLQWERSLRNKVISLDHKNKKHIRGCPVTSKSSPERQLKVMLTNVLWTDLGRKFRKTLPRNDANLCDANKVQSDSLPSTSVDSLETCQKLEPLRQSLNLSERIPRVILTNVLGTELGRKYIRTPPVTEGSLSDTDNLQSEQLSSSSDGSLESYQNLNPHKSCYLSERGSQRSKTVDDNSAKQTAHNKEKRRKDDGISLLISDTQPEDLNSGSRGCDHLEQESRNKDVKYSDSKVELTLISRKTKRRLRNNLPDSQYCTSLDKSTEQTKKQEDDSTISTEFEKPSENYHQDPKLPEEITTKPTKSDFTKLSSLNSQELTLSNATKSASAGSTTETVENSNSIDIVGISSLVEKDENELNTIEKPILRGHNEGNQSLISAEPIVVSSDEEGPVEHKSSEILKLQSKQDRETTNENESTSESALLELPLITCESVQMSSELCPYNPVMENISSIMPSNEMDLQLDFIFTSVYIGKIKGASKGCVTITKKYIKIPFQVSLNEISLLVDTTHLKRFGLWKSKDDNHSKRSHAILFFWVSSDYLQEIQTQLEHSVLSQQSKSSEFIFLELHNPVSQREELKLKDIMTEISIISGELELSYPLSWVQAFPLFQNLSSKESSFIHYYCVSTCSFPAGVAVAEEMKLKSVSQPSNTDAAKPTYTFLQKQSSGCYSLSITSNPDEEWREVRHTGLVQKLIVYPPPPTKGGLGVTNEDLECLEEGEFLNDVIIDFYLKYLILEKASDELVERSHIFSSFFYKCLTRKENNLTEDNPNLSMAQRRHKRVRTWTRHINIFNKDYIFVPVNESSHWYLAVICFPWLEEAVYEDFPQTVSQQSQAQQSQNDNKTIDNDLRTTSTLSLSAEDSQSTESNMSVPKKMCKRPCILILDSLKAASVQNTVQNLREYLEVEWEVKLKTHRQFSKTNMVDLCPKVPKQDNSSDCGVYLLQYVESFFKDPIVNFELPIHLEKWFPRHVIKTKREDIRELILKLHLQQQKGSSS
In kind it is functional.

The target of experiment [7] is T4, Sentrin-specific protease 6 (Homo sapiens, UniProt Q9GZR1).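 Further: Luminescence-based dose-response confirmatory assay of SENP6 inhibition, following up an ultra-high-throughput screen.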
T4 sequence (Q9GZR1 whole entry): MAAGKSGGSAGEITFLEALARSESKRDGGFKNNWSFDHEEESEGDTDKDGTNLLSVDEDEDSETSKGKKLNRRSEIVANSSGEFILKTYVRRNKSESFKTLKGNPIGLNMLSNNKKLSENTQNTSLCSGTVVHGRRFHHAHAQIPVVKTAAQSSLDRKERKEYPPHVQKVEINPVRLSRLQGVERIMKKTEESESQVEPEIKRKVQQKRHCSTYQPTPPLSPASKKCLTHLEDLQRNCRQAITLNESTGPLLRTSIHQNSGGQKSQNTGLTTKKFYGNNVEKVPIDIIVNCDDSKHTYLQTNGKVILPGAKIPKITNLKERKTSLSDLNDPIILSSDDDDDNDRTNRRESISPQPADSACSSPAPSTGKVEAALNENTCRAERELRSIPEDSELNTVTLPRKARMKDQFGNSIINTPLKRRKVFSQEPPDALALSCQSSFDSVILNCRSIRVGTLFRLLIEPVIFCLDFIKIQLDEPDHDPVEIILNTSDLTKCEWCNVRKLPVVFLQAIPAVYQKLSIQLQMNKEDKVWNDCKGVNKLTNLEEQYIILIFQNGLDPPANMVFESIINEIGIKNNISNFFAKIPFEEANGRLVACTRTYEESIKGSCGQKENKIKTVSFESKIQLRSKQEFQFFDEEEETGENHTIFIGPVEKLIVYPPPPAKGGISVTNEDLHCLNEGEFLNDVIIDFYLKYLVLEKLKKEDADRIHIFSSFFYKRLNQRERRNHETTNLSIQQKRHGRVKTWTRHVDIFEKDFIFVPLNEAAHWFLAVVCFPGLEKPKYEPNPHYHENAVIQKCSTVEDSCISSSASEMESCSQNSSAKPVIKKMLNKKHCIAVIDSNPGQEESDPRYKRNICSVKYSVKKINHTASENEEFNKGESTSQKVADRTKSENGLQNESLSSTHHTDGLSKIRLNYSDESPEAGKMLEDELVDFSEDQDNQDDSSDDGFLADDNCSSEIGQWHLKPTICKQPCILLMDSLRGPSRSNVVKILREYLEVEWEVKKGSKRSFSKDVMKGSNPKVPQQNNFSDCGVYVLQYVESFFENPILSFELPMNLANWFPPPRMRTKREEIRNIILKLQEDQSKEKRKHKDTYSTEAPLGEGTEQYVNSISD
In kind it is functional.

For experiment [8], the target named is T5, Sentrin-specific protease 8 (Homo sapiens, UniProt Q96LD8).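 Further: luminescence read-out of SENP8 inhibition, dose-response confirmation following an ultra-high-throughput screen.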
T5 sequence (Q96LD8 whole entry): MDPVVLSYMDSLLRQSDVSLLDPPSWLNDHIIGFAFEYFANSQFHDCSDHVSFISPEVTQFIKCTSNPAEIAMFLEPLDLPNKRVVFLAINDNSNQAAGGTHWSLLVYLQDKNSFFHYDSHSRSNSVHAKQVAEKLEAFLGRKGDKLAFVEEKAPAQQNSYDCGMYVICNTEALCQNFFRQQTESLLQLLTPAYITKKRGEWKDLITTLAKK
In kind it is functional.

For the next experiment, the target named is T6, Caspase-3 (Homo sapiens, UniProt P42574).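 Further: Dose-response selectivity test against caspase-3 for candidate inhibitors of sentrin-specific proteases (SENPs).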
T6 sequence (P42574 whole entry): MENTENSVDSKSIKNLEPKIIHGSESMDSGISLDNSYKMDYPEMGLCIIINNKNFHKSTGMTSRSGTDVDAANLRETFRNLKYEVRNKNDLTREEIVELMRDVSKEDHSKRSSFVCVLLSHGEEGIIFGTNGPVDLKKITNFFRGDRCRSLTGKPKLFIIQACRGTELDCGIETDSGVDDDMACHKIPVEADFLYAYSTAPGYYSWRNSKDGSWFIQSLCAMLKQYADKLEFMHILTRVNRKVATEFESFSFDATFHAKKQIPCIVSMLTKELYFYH
In kind it is functional.

The subject of experiment [9] is HEK293. As to the kind of experiment: HEK cell cytotoxicity by LDH release, dose response, cytotoxicity control for IDE activator project, fluorescence, HEK cells (AID 588440).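 Further: cytotoxicity by LDH release measuring loss of membrane integrity.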 In kind it is functional, cell-based. As to conditions: Homo sapiens. In general terms: Release of lactate dehydrogenase indicates damage to the cell membrane.
The subject of experiment [10] is HEK293. Briefly: optical interference in Abeta FP readout, dose response, artefact control for IDE activator project, biochemical, fluorescence polarization (AID 588442). Type of experiment: functional, cell-based. Particulars: Homo sapiens. Background: In fluorescence polarisation assays a small probe gives low polarisation when free and higher when bound to something large.

Experiment [11] addresses T7, Insulin-degrading enzyme (Homo sapiens, UniProt P14735).
T7 sequence (P14735 whole entry): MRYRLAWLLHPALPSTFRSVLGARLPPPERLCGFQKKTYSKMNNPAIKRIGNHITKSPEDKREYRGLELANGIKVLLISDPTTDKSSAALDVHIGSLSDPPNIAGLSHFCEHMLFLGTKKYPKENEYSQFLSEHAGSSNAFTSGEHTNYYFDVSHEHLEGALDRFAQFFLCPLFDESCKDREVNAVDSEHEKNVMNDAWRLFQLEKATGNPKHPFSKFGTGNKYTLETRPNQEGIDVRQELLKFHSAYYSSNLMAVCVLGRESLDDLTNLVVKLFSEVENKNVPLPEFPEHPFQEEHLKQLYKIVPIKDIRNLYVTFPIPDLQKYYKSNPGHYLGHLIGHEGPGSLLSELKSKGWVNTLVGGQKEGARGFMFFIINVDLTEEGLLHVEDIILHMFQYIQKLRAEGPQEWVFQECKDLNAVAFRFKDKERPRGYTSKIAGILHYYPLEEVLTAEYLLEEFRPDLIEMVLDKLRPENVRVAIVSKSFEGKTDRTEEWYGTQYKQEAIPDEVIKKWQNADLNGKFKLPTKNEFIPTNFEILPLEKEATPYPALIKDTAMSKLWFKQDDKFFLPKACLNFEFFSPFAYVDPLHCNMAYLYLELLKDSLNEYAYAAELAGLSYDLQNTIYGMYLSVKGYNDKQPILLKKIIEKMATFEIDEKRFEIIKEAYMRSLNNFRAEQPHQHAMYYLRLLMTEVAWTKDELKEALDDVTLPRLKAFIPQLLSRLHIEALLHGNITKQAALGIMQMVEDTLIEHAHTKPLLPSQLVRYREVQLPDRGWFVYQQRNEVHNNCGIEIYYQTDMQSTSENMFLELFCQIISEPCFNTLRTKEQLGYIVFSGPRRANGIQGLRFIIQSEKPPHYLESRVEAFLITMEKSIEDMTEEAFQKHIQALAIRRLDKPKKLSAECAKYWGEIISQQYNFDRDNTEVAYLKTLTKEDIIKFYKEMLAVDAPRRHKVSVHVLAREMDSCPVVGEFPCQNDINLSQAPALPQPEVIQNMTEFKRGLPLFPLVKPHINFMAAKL
Briefly: activators of recombinant IDE enzyme, dose response, counter-screen for IDE activator project, biochemical, fluorescence polarization (AID 588681).

For experiment [12], the target named is T7, Insulin-degrading enzyme. Briefly: activators of endogenous IDE in HEK cells, dose response, cell-based, fluorescence polarization (AID 588439). Type of experiment: functional.

Active and inactive are the calls of the source. Where only a bound is given, the exact number is not on record here.

As usually defined, the IC50 is the concentration needed to halve the response being measured. With `CCCN(CC(=O)Nc1ccccc1C)C(=O)CCCOc1ccc(Br)cc1`, the IC50 in experiment [1] is > 100 µM (inactive).

What is called AC50 is the midpoint of the concentration-response curve, whichever way the signal moves. In the case of `Cc1nc2ncccn2c1-c1csc(Nc2ccccc2)n1`, the AC50 was 93.5 µM (active) in experiment [2] and 28.1 µM (active) in the experiment with HEK293 [3].

As to `COc1cc2nc(NC(=O)c3ccco3)sc(=O)c2cc1OC`, the IC50 is 10.5 µM (active) in [4] and > 80 µM (inactive) in experiment [5]. In the experiment on HEK293 [3], the AC50 is 6.84 µM (active).

As for `Clc1ccc(-c2nnc(NC3=NCCCCC3)o2)cc1`, the IC50 in experiment [6] was 15.4 µM (active); in [7], 30.1 µM (active); in [8], 29.8 µM (active); on Caspase-3, 15 µM (active). For the same molecule, the AC50 in the experiment with HEK293 [3] is 1.84 µM (active).

One may read the EC50 as the concentration that produces a half-maximal response. Regarding `CSc1ccccc1OCc1cc(C(=O)NCCn2nc(C)cc2C)no1`, in the experiment on HEK293 [9], the IC50 was > 89.2 µM (inactive). Moreover, the EC50 in the experiment on HEK293 [10], on Insulin-degrading enzyme [11] and at Insulin-degrading enzyme [12] was > 54.7 µM (inactive) each time.
